Data from patent publication US20110111115A1, “REBAUDIOSIDE A POLYMORPHS AND METHODS TO PREPARE THEM” (priority 2009, published 2011).

Experiment: Solubility in water of the rebaudioside A polymorph
Assay type: physicochemical
Details: 25° C.

solubility in water: about 1.5 mg/ml
Compound: C=C1C[C@@]23CC[C@H]4[C@@](C)(CCC[C@@]4(C)C(=O)O[C@@H]4O[C@H](CO)[C@@H](O)[C@H](O)[C@H]4O)[C@@H]2CC[C@]1(O[C@@H]1O[C@H](CO)[C@@H](O)[C@H](O[C@@H]2O[C@H](CO)[C@@H](O)[C@H](O)[C@H]2O)[C@H]1O[C@@H]1O[C@H](CO)[C@@H](O)[C@H](O)[C@H]1O)C3 [rebaudioside A polymorph, rebaudioside A]
